Source: patent publication US11793782B2, “Therapeutic agents for neurodegenerative diseases” (priority 2017, dated 2023)
“And” between values parts separate entries of the source, which are not always exact repeats. Equal values may be shown once.

Legend:
[1] = tested on: Sandhoff disease patient fibroblasts; assay: Glycosphingolipid (GSL) levels by HPLC, Sandhoff fibroblasts; type: cell-based, human; conditions: 1 mM for 6 days
[2] = tested on: Aspartylglucosaminuria patient fibroblasts; assay: Lysosomal volume via LysoTracker, Aspartylglucosaminuria fibroblasts; type: cell-based, human; conditions: 1 mM, 6 days
[3] = tested on: NPC Chinese Hamster Ovary (CHO) cells; assay: Relative lysosomal volume via LysoTracker, NPC CHO cells; type: cell-based; conditions: 1 mM, 72 hours, p<0.01 versus untreated NPC1-null
From the text: Relative lysosomal volume was quantified via LysoTracker.

NPC patients = assay: Clinical severity score (CSS) and annual severity increment score (ASIS) in NPC patients; type: in vivo, human; set-up: key to CSS overall / CSS eye movement / CSS ambulation / CSS speech / CSS swallow / CSS fine motor skills / CSS cognition / CSS memory / CSS seizures: NPC clinical severity score; higher score = greater severity; conditions: for CSS overall / CSS ambulation / CSS cognition / CSS eye movement / CSS fine motor skills / CSS memory / CSS seizures / CSS speech / CSS swallow / ASIS overall: NPC patients; for ASIS overall: CSS divided by age
From the text: Progression of a neurodegenerative disease over time or through treatment can be monitored, for example, using one or more known tests at two or more time points and comparing the results. Disease progression and/or severity can be assessed, for example, using the Scale for the Assessment and Rating of Ataxia (SARA), Spinocerebellar Ataxia Functional Index (SCAFI), the International Cooperative Ataxia Rating Scale (ICARS), the brief ataxia rating scale (BARS), the modified Disability Rating Scale (mDRS), EuroQol 5Q-5D-5L (EQ-5D-5L), the visual analogue scale (VAS), neuropsychological tests, such as Wechsler Adult Intelligence Scale-Revised (WAIS-R), Wechsler Intelligence Scale for Children-IV (WISC-IV), Montreal Cognitive Assessment (MoCA), as well as scales used in movement disorders, such as the Unified Parkinson's Rating Scale (UPRS) or the Unified Multiple System Atrophy Rating Scale (UMSARS), or other suitable tests. For certain LSDs, such as NPC, particular scores have been developed and validated over the last decades, for instance the clinical severity score (CSS) and annual severity increment score (ASIS) (see Yanjanin et al., “Linear Clinical Progression, Independent of Age of Onset, in Niemann-Pick Disease, Type C,” Am J Med Genet Part B 153B:132-140) and the modified 6-Domain NP-C disability Scale (mDRS score). For example, an NPC patient's severity can be quantified by assigning a CSS, which assesses various parameters of the disease (ambulation, seizures, eye movement, etc.) and gives each parameter a score out of 5. A higher score equals a greater severity. The ASIS quantifies the annual rate of change in the CSS, calculated by dividing the CSS by the patient's age. In this regard, certain scores in these tests are characteristic of symptomatic neurodegenerative disease patients and evidence disease progression and/or severity.
An NPC patient's severity may be quantified by assigning a clinical severity score (CSS), which assesses various parameters of the disease and gives each parameter a score out of 5 (higher score=greater severity). See Yanjanin et al., “Linear Clinical Progression, Independent of Age of Onset, in Niemann-Pick Disease, Type C,” Am J Med Genet Part B 153B:132-140. In an untreated patient, one can typically predict how the CSS will change over time in an individual, as disease progression appears to be linear. For example, if Patient A moves from a CSS of 8 to a CSS of 12 between month 0 and month 12, it can be predicted that by month 36, the patient will have a CSS of 20. The annual severity increment score (ASIS) quantities the annual rate of change in the CSS, calculated by dividing the CSS of a patient by the patient's age. […] Each year, the patient would be expected to progress by 4 CSS points, such that at 4 years of age, the patient's CSS would be 16. If therapeutic intervention slowed or arrested disease progression, one would expect the patient to have a smaller ASIS score after such therapy than at baseline.
Ten NPC patients were administered acetyl-leucine at 4.5 g/day over long durations. ACSS was determined at baseline, and at various time points, for eye movement, ambulation, speech, swallow, fine motor skills, cognition, memory, and seizures. An overall CSS was calculated at baseline and at each such time point by adding the individual CSS values for each parameter (eye movement, ambulation, etc.).
The ASIS at baseline and each time point was calculated using each patient's CSS and age at the time of assessment. The overall ASIS for each patient at each time point is shown below in Table 35.

[4] = tested on: Hexb−/− mouse (Sandhoff disease model); assay: Step cycle, Sandhoff mouse; type: in vivo; conditions: Sandhoff mice, 0.1 g/kg from 3 weeks of age, 12 weeks of age
Method: Step cycle is the length of time taken during locomotion by a limb from the time it leaves the ground until it leaves the ground on the next occasion. Step cycle time was assessed at 12 weeks of age in untreated and acetyl-leucine treated Sandhoff model mice. Acetyl-leucine treatment constituted 0.1 g/kg body weight acetyl-leucine from 3 weeks of age.

[5] = tested on: Hexb−/− mouse (Sandhoff disease model); assay: Lifespan of Sandhoff mouse; type: in vivo
Method: This study made use of a mouse model of Sandhoff disease, the Hexb^−/− mouse, as descrbed in Jeyakumar et al. (Jeyakumar, M. et al. (1999) Proc. Natl. Acad. Sci. USA 96: 6388-6393).
In FIG. 7A, acetyl-leucine-treated mice were treated with 0.1 g/kg acetyl-leucine from 3 weeks of age. The asterisks (*) indicates a p-value of <0.05 vs untreated Sandhoff mice. Data is average of n=6 mice per group. Without treatment, the median survival time of Sandhoff mice was 112 days. Treatment with acetyl-leucine (0.1 g/kg body weight since 3 weeks of age) increased the median lifespan to 120 days.

[6] = one line per Patient, 4.5 g/day, Time Point 2, listed as acetyl-leucine
[7] = one line per Patient, 4.5 g/day, Time Point 3, listed as acetyl-leucine
[8] = one line per Patient, 4.5 g/day, Time Point 4, listed as acetyl-leucine

In the case of `CC(=O)NC(CC(C)C)C(=O)O` (racemic) [acetyl-DL-leucine], the GSL levels [1] was “trend towards decreased GSL levels”, the “LysoTracker fluorescence relative to untreated disease fibroblasts” value [2] was “trend in reducing LysoTracker fluorescence” and the “Lysosomal volume (LysoTracker)” value [3] was “significantly reduced lysosomal volume”. For the same compound, the CSS overall (NPC patients; one line per Patient I.D 1-10, 4.5 g/day, Time Point 2 (78-400 days, Table 25), listed as acetyl-leucine) was 13 and 12 (3×) and 23 and 19 and 22 and 11 (2×) and 33, the CSS ambulation (NPC patients; [6]) was 2 (5×) and 1 (3×) and 4 and 5 and the CSS cognition (NPC patients; [6]) was 3 (5×) and 4 (3×) and 2 and 5. For the same compound, the CSS eye movement (NPC patients; [6]) was 2 and 3 (9×), the “CSS fine motor skills” value (NPC patients; [6]) was 1 (6×) and 4 (2×) and 2 and 5 and the CSS memory (NPC patients; [6]) was 1 (5×) and 3 and 4 (3×) and 0. The CSS seizures (NPC patients; [6]) was 0 (9×) and 5, the CSS speech (NPC patients; [6]) was 2 (4×) and 1 (6×) and the CSS swallow (NPC patients; [6]) was 2 (5×) and 3 (3×) and 0 and 4. The CSS overall (NPC patients; one line per Patient, 4.5 g/day, Time Point 3 (165-644 days), listed as acetyl-leucine) was 10 (2×) and 12 and 21 (2×) and 19 and 11 (2×) and 33, the CSS ambulation (NPC patients; [7]) was 1 (5×) and 2 (3×) and 5 and the CSS cognition (NPC patients; [7]) was 3 (5×) and 4 (3×) and 5. The CSS eye movement (NPC patients; [7]) was 2 (2×) and 3 (7×), the “CSS fine motor skills” value (NPC patients; [7]) was 1 (5×) and 4 (2×) and 2 and 5 and the CSS memory (NPC patients; [7]) was 0 (2×) and 1 (3×) and 3 (2×) and 4 (2×). The CSS seizures (NPC patients; [7]) was 0 (8×) and 5, the CSS speech (NPC patients; [7]) was 1 (6×) and 2 (3×) and the CSS swallow (NPC patients; [7]) was 2 (4×) and 3 (3×) and 0 and 4. The CSS eye movement (NPC patients; one line per Patient, 4.5 g/day, Time Point 4) was 3, the CSS overall (NPC patients; one line per Patient, 4.5 g/day, Time Point 4 (297-414 days), listed as acetyl-leucine) was 12 and 21 and 33 and the CSS ambulation (NPC patients; [8]) was 1 and 2 and 5. For the same compound, the CSS cognition (NPC patients; [8]) was 3 and 4 and 5, the “CSS fine motor skills” value (NPC patients; [8]) was 1 and 4 and 5 and the CSS memory (NPC patients; [8]) was 1 and 3 and 4. The CSS seizures (NPC patients; [8]) was 0 (2×) and 5, the CSS speech (NPC patients; [8]) was 1 and 2 (2×) and the CSS swallow (NPC patients; [8]) was 2 and 3 and 4. The ASIS overall (NPC patients; one line per patient (order of Table 26), Time Point 2, listed as acetyl-leucine) was 0.4767 and 0.4299 and 0.6073 and 0.5333 and 0.4452 and 0.7124 and 0.406 and 0.3769 and 1.905 and 0.5926, the ASIS overall (NPC patients; one line per patient, Time Point 3, listed as acetyl-leucine) was 0.3635 and 0.4232 and 0.5523 and 0.5299 and 0.4029 and 0.6656 and 0.3393 and 1.881 and 0.5325 and the ASIS overall (NPC patients; one line per patient, Time Point 4, listed as acetyl-leucine) was 0.4162 and 0.5454 and 1.853. The “ASIS during treatment relative to ASIS at baseline” value (NPC patients; ten NPC patients, 4.5 g/day) was “all ten patients showed a reduction in ASIS”, the “Overall change in CSS over the course of the experiment” value (NPC patients; ten NPC patients, 4.5 g/day) was “none of the ten patients showed an overall increase in CSS” and the “Average step cycle time” value ([4]; p<0.001 vs untreated) was “significantly faster average step cycle times”. The “Hind step cycle time” value ([4]; p<0.01 vs untreated) was “significantly faster hind step cycle times”, the “Front step cycle time” value ([4]; p<0.05 vs untreated) was “significantly faster front step cycle times” and the Median lifespan ([5]; Sandhoff mice, 0.1 g/kg body weight since 3 weeks of age, untreated 112 days) was 120 days. The Lifespan ([5]; Sandhoff mouse, 0.1 g/kg from 3 weeks of age, p<0.05 vs untreated) was “statistically significant increase in the lifespan”.
